In publication PMC11801715, “Activating PKC-ε induces HIV expression with improved tolerability” (PLOS Pathogens, 2025):

What was measured:
[1] = tested on: platelets (CD62P+) and CD4+ T cells (CD69+) in whole blood; test: In vitro whole blood platelet and CD4+ T-cell activation assay; format: cell-based, human; conditions: whole blood from healthy donors; platelets to CD4+ T cells
Method: We developed a novel human whole blood assay to determine whether other PKC agonists also activate platelets at the same concentrations that are required to activate CD4^+ T cells. Platelet activation was assessed by CD62P (P-selectin), which traffics to the cell surface upon activation and α-granule release. CD4^+ T-cell activation was assessed by CD69 upregulation (Fig 7A).
Whole blood was drawn into sodium citrate tubes using a 21-gauge needle. To prevent potential interference from tissue thromboplastin released during venipuncture, which could affect the accuracy of coagulation testing, the first 2 mL of blood drawn was discarded. PKC agonist molecules were dispensed in a dilution series into 80 μL of blood per well in a flat-bottom 96-well plate and mixed gently. Care was taken not to introduce any mechanical stress-related activation of platelets. […] The remaining 72 μL of blood in the first plate was incubated for 1 additional hour and stained with anti-human CD3 (UCHT1), CD4 (SK3), and CD69 (FN50) (30 minutes in the dark). Red blood cell lysis and fixing was done using BD lyse/fix solution. Stained cells were acquired on BD LSR Fortessa II after washing. […] EC50 values for platelet and CD4 T-cell activation for each agonist was obtained by nonlinear regression curve fit using GraphPad Prism version 9.3.0.

[2] = tested on: latent HIV in total CD4+ T cells; test: microbe, parasite or virus in culture; format: cell-based, HIV-1; conditions: Human immunodeficiency virus 1, CD4+ T, read-out: EC50, activation of HIV expression
Method: Peripheral blood mononuclear cells and CD4^+ T cells used for evaluating PKC agonist and inhibitor molecules were isolated from leukopaks of selected participants as described previously. Isolated CD4^+ T cells (5×10^6 cells/well) were added to 24-well tissue culture plates in 2.5 mL of RPMI medium containing 100 nM each of elvitegravir and efavirenz. Cells were stimulated with DMSO (vehicle control) or the indicated concentrations of PKC agonist molecules. Cells were pretreated with PKC isoform inhibitors (Selleck Chemicals) for 1 hour before addition of PKC agonist at indicated concentrations and maintained at 37 °C, 5% CO2 for 3 days. Cell supernatants from each well were analyzed using the Cobas […] system for quantification of HIV-1 RNA using the HIV-1 test v2.0 kit (Roche Diagnostics).

CD69 on CD4+ T cells = test: CD4+ T-cell activation flow cytometry (CD69); format: cell-based; conditions: Homo sapiens; CD4+ T cells from ART-suppressed people with HIV; read-out: EC50, activation of CD69 expression
Method: Sixteen hours post treatment with PKC agonists, cellular activation of 100,000 CD4^+ T cells, taken from the above ex vivo HIV activation cultures, was assessed using flow cytometry. Cell surface expression of CD69 was measured on CD4^+ T cells using anti-human CD3 (UCHT1), CD4 (SK3) and CD69 (FN50) antibodies and standard flow staining methods. Stained cells were acquired on the Becton Dickinson (BD) LSR Fortessa II flow cytometer and results were analyzed using FlowJo software.

platelet-rich plasma = test: Platelet aggregation assay (light transmittance aggregometry); format: cell-based, human; conditions: dilution series, 20 minutes
Method: Given that C-232A induced DIC in rats and monkeys, we tested whether C-232A could directly induce platelet activation and downstream aggregation. […] Adenosine diphosphate, a known platelet agonist, was used as a positive control (S7A Fig).
Aggregation of platelets was assessed using light transmittance aggregometry using standard methods.
(A) Assay principle for platelet aggregation assay.

PBMCs = test: Cytokine induction in vitro in PBMC culture supernatants; format: cell-based, human; conditions: 24 hours
Method: Culture supernatants were analyzed for induction of several cytokines as shown in S3 Table, using a 10-plex MSD (Meso Scale Discovery) assay following manufacturer’s instructions. MSD Workbench 4.0 software was used for data analysis and 4-parameter logistic curve fit model was utilized to determine values of experimental samples from standard curves. Values for each cytokine (pg/mL) for a given concentration was calculated as the geometric mean of all triplicate values combined from all 5 donors.

[3] = cited from earlier work

With `CC(C)[C@H]1C(=O)N[C@H](CO)Cc2c[nH]c3cccc(c23)N1C` [Indolactam, reference compound] the “CD62P EC50/CD69 EC50 ratio Geomean” value [1] was 2.0.
For `CC(=O)O[C@@]12C[C@@H](C)[C@@]3(O)[C@@H](C=C(CO)C[C@]4(O)C(=O)C(C)=C[C@@H]34)[C@@H]1C2(C)C` [Prostratin, prostratin, reference compound], the EC50 [2] was 2500 nM, the EC50 (CD69 on CD4+ T cells) was 280 nM and the platelet aggregation (platelet-rich plasma) was “stimulated platelet aggregation”. The “GM-CSF in PBMC culture supernatant” value (PBMCs; 625 nM) was 35 pg/mL, the “IFN-γ in PBMC culture supernatant” value (PBMCs; 625 nM) was 255 pg/mL and the “IL-1b in PBMC culture supernatant” value (PBMCs; 625 nM) was 57 pg/mL. The “IL-2 in PBMC culture supernatant” value (PBMCs; 625 nM) was 22 pg/mL, the “IL-4 in PBMC culture supernatant” value (PBMCs; 625 nM) was 0.7 pg/mL and the “IL-6 in PBMC culture supernatant” value (PBMCs; 625 nM) was 40 pg/mL. The “IL-8 in PBMC culture supernatant” value (PBMCs; 625 nM) was 40,698 pg/mL, the “IL-10 in PBMC culture supernatant” value (PBMCs; 625 nM) was 4 pg/mL and the “IL-12p70 in PBMC culture supernatant” value (PBMCs; 625 nM) was 10 pg/mL. The “TNF-α in PBMC culture supernatant” value (PBMCs; 625 nM) was 634 pg/mL, the “GM-CSF in PBMC culture supernatant” value (PBMCs; 2500 nM) was 68 pg/mL and the “IFN-γ in PBMC culture supernatant” value (PBMCs; 2500 nM) was 292 pg/mL. For the same molecule, the “IL-1b in PBMC culture supernatant” value (PBMCs; 2500 nM) was 108 pg/mL, the “IL-2 in PBMC culture supernatant” value (PBMCs; 2500 nM) was 32 pg/mL and the “IL-4 in PBMC culture supernatant” value (PBMCs; 2500 nM) was 1.1 pg/mL. For the same molecule, the “IL-6 in PBMC culture supernatant” value (PBMCs; 2500 nM) was 78 pg/mL, the “IL-8 in PBMC culture supernatant” value (PBMCs; 2500 nM) was 45,930 pg/mL and the “IL-10 in PBMC culture supernatant” value (PBMCs; 2500 nM) was 4.6 pg/mL. For the same molecule, the “IL-12p70 in PBMC culture supernatant” value (PBMCs; 2500 nM) was 12 pg/mL and the “TNF-α in PBMC culture supernatant” value (PBMCs; 2500 nM) was 1489 pg/mL.
In the case of `CCC/C=C/C=C/C(=O)O[C@H]1/C(=C/C(=O)OC)C[C@H]2C[C@H]([C@@H](C)O)OC(=O)C[C@H](O)C[C@@H]3C[C@H](OC(C)=O)C(C)(C)[C@](O)(C[C@@H]4C/C(=C/C(=O)OC)C[C@H](/C=C/C(C)(C)[C@]1(O)O2)O4)O3` [Bryostatin, reference compound], the dose-limiting toxicity [3] is given as “myalgia” and the “CD62P EC50/CD69 EC50 ratio Geomean” value [1] is given as 0.9.
With `CCCCCC(=O)O[C@H]1C(C)=C[C@]23C(=O)[C@@H](C=C(CO)[C@@H](O)[C@]12O)[C@H]1[C@@H](C[C@H]3C)C1(C)C` [Ingenol B, reference compound] the “CD62P EC50/CD69 EC50 ratio Geomean” value [1] was 1.8.
